Assay results reported in patent publication US5869494A, “Uses for barbituric acid analogs” (priority 1997, dated 1999).

Tested on: Daudi human lymphoma cells
Assay: Cytotoxicity for lymphoma cells (Daudi)
Format: cell-based
Details: Homo sapiens, Daudi, 150 μg/ml, time not stated; read-out: cell kill
Experimental: In the following examples, tumor cells were treated with varying concentrations of compounds C1, C2, C4 or C5 dissolved in absolute ethanol. To limit any non-specific toxicity, the final concentration of ethanol was not allowed to exceed 0.5%. Stock concentrations of 5 mg/ml or 20 mg/ml were used. Viability of cells was determined in some studies by the trypan blue dye exclusion method. In other studies, cell viability/proliferation activity was determined by MTT assay by using a kit obtained from Promega, (Promega Corp., Madison, Wis. 53711). For this assay, a 100 μl cell suspension containing 5-10^3 monolayer cells or 1×10^5 suspension cells was placed in the wells of a 96-well microtiter plate. After overnight incubation, cells were treated with different concentrations of the test compound. Control wells received vehicle only. After 24, 48, 72 or 96 h of incubation, 50 μl of MTT dye solution was added. After 4 h of incubation at 37° C., 100 μl of solubilization/stop solution was added. After another h of incubation, cells were mixed using a multi-channel pipet and the absorption of the dye color was recorded at 570 nm using a plate reading absorption spectrophotometer.
The viability of the cells was
Compounds C4 and C5 were also tested for toxicity against human lymphoma Daudi cells.

SMILES	cytotoxicity at 150 µg/mL [%]
O=C1CC(=O)NC(=S)N1 [Compound C4]	< 20
CN1C(=O)CC(=O)N(C)C1=S [Compound C5]	< 20
